Assay results published in ChEMBL document CHEMBL5724803, “Viability screening in matched tumor and normal assay results for EUbOPEN Chemogenomics Library” (2024).
Square brackets hold non-standard residues; d marks the D form. Peptide text beside a SMILES is read from it. Arg(Me) = CNC(=N)NCCC[C@H](N)C(=O)O; d3Pal = N[C@H](Cc1cccnc1)C(=O)O; d4Pal = N[C@H](Cc1ccncc1)C(=O)O; azaGly = NNC(=O)O

System: Colon organoid
Format: functional, Homo sapiens

| Structure (SMILES) | Cell Viability Ratio |
| --- | --- |
| CN1CCN(Cc2ccc(Nc3ncc(Cl)c(Nc4ccccc4S(=O)(=O)N(C)C)n3)cc2)CC1 [DUBERMATINIB] | 0.1542 |
| C[C@H](NC(=O)Nc1cc2[nH]ncc2c(CO)n1)c1ccccn1 [ERKi-NC] | 1.034 |
| COc1cccc(CNC(=O)c2nc3scc(CN(C)Cc4ccccc4)c3c(=O)[nH]2)c1 [T-26f] | 1.048 |
| Cn1cc(-c2ccc3occ(-c4ccccc4-c4ccccc4)c3n2)cn1 | 0.9405 |
| O=C1NC(c2ccccn2)Sc2ccccc21 (configuration not stated) [BTZO-4] | 1.041 |
| Cc1c(NC(=O)c2ccc(C(C)(C)C)cc2)cccc1-c1cn(C)c(=O)c(Nc2ccc(C(=O)N3CCOCC3)cc2)n1 | 0.9821 |
| CCCOc1ccc([C@@H]2[C@@H](C(=O)O)[C@H](c3ccc4c(c3)OCO4)CN2CC(=O)Nc2c(CC)cccc2CC)cc1 [A-1806262] | 1.041 |
| O=C(O)[C@H]1[C@H](Cn2nnc3ccccc3c2=O)CC[C@@H]1C(=O)c1ccc(OCCC2CCOCC2)cc1 [BAY-7598] | 1.026 |
| Cc1c(NC(=O)c2cc(C(N)=O)nc3cc(F)ccc23)c(C(F)(F)F)nn1Cc1ccc(C#N)cc1 [BAY-876] | 1.117 |
| CN1CCN(C(=O)C(C)(C)c2ccc(C(=O)Nc3cn4cc(-c5cc(C(C)(C)C)cc(C(C)(C)C)c5)ccc4n3)cc2)CC1 [T3-CLK-N] | 0.9471 |
| CN(C)[C@H]1CCN(c2cc(-c3ccccc3)nc3ccnn23)C1 [(S)-ZINC-3573] | 1.093 |
| CN(C)C(=O)Cn1cc(-c2nc(C3(c4ccc(-c5cnc(N)nc5)cc4)CC3)no2)cn1 [BI 0153] | 0.9292 |
| CCC(=O)N[C@H]1CC[C@@H](C(=O)N(C)c2ccc(-c3nc4ccccc4o3)cc2)C1 [BI 99179] | 0.6872 |
| COc1ccc2c(c1)O[C@@H](c1ccc(OC)c(OC)c1)C[C@H]2NC(=O)C1(c2ccc3c(c2)OC(F)(F)O3)CC1 [A-1596586] | 1.062 |
| CS(=O)(=O)NCC[C@H](NC(=O)c1cncc2c1cnn2-c1ccc(F)cc1)c1ccnc(S(C)(=O)=O)c1 [BI 9307] | 1.198 |
| C[C@@H](c1cccc(CN)c1)n1cc(Cl)cc(C(N)=O)c1=N.Cl | 1.078 |
| Cc1ccc(NC(=O)Nc2cc(C(F)(F)F)ccc2F)cc1Nc1ccc2c(c1)NC(=O)/C2=C\c1ccc[nH]1 | 0.7659 |
| O=C(O)c1ccc(-c2coc3ncc(-c4ccccc4)cc23)cc1Cl | 0.9757 |
| Cc1c(Oc2ccc(F)cc2)c(OC(C)C)nn1-c1ccc(C2CC2)cn1 [IPP/CNRS-A019] | 1.225 |
| O=C(c1ccc(F)cc1)N1CC(COc2ccc(Br)cc2)(C(=O)O)C1 [PF-04475866] | 0.9754 |
| CC1=C(C#N)C(c2ccc3c(c2)c(NC(=O)c2ccccc2C)nn3C)C(C#N)=C(C)N1 [BAY-974] | 1.012 |
| Cc1c(N2CCNCC2)nc2ccc(Br)cc2c1C(=O)NC[C@H](CCC(=O)O)c1ccccc1Cl [BAY-403] | 0.887 |
| CCOC(=O)c1cc2cc(-c3cc(C(=O)NCc4ccc(C(=O)O)cc4)nn3C)ccc2[nH]1 [BI 4394] | 0.9253 |
| CN(C)C(=O)Cn1cc(-c2ccc(-c3nnc4ccccn34)cc2)cn1 | 1.225 |

| Structure (SMILES) | Cell Viability Ratio |
| --- | --- |
| c1ccc2oc(-c3csc(C4CCN(Cc5nc6ncccc6[nH]5)CC4)n3)cc2c1 | 0.6127 |
| COc1cc(Nc2ccnc3ccc(Br)cc23)cc(OC)c1OC | 1.477 |
| CN(C(=O)c1ccccc1)c1cc(N(C)c2ccc3c(c2)CCc2ccc(C(=O)NCCN4CCOCC4)cc2C3=O)ccc1F [FM-743] | 0.9975 |
| Cc1nc(N2CC[C@H](O)C2)ncc1-c1cc(C(F)(F)F)cc2[nH]ncc12 | 1.041 |
| O=C(NS(=O)(=O)c1ccc(NCC2CCOCC2)c([N+](=O)[O-])c1)c1ccc(N2CCN(Cc3ccc(C(F)(F)F)cc3-c3ccc(Cl)cc3)CC2)cc1Oc1cnc2[nH]ccc2c1 [A-1210227] | 0.9477 |
| N#CC1(c2ccccn2)CCN(Cc2cc(C(=O)N3CCCC3)c(=O)n3ccccc23)CC1 [MSD-M1PAM-NC] | 1.068 |
| O=C1c2ccc(Nc3ccc(F)cc3F)cc2CCc2ccc(OC[C@H](O)CO)cc21 [Skepinone-L] | 1.035 |
| CC(C)(O)c1cncc(-c2nc3ccc(F)cc3n2C2CC2)c1 [MSD-CYP11B2] | 0.9895 |
| Cn1cc(-c2ccc3occ(-c4cccc(-c5ccncc5)c4)c3n2)cn1 | 0.9731 |
| CN(C)[C@@H]1CCN(c2cc(-c3ccccc3)nc3ccnn23)C1 [(R)-ZINC-3573] | 0.9989 |
| CCC(=O)N[C@@H]1CC[C@H](C(=O)N(C)c2ccc(-c3nc4ccccc4o3)cc2)C1 [BI 99990] | 1.309 |
| Cc1cnc(-c2cc(Cl)ccc2F)cc1-n1c(=O)n(CC(N)=O)c2ccccc21 [Al11] | 1.079 |
| CNC(=N)NCCC[C@H](NC(=O)[C@H](CC(C)C)NC(=O)NNC(=O)[C@H](Cc1ccccc1)NC(=O)[C@H](CO)NC(=O)[C@H](CC(N)=O)NC(=O)[C@@H](Cc1ccncc1)NC(=O)[C@H](N)Cc1ccc(O)cc1)C(=O)N[C@@H](Cc1ccccc1)C(N)=O [KISS1-305] (H-[dY][d4Pal]NSF[azaGly]L[Arg(Me)]F-NH2) | 1.123 |
| Cn1nc(C(F)(F)F)cc1-c1cnc(N2CCc3cc(S(=O)(=O)Nc4c(F)cc(Cl)cc4F)cc(N4CCCC4=O)c32)nc1 [TP-020] | 0.9629 |
| CN1C(=O)[C@@H](N2CCc3c(nn(Cc4ccccc4)c3Br)C2=O)COc2ccccc21 [TP-030-2] | 1.065 |
| CNC(=O)c1cc(C(=O)NC2CC2)cn(Cc2ccccc2)c1=O [GSK620] | 0.8825 |
| C[C@@]1(Cc2ccc(C#N)cc2)C(=O)N(c2cc(Cl)cc(Cl)c2)c2ncc(C(=O)NC3(c4nc(C5CCC5)no4)CC3)n21 [BI 9446] | 1.099 |
| CN(c1ccnc(CNc2nc(Nc3ccc4c(c3)CC(=O)N4)ncc2C(F)(F)F)n1)S(C)(=O)=O [PF-00911705] | 1.1264 |
| CCCCN(CCCC)C(=O)CN1C[C@@H](c2cc(OC)c3c(c2)OCO3)[C@H](C(=O)O)[C@H]1CC(C)(C)CCC [A-545] | 1.095 |
| Cn1cnc2c(F)c(Nc3ccc(Br)cc3Cl)c(C(=O)NOCCO)cc21 [SELUMETINIB] | 1.4315 |
| CC(=O)Nc1c(F)cc(C(=O)N[C@H]2CC[C@H](O)CC2)cc1O[C@@H](C)c1ccccc1 [GSK046] | 0.8182 |
| CCS(=O)(=O)c1cc2cc(C[C@@](O)(CC(C)(C)c3ccc(F)cc3C(N)=O)C(F)(F)F)[nH]c2cn1 [BI 3047] | 1.1136 |
| O=C(Nc1cccnn1)N1CCC(=Cc2cccc(Oc3ccc(C(F)(F)F)cn3)c2)CC1 | 0.957 |
| O[C@]1(C(F)(F)F)CCCC[C@H]1Nc1ccc(F)cc1 [BAY-390] | 0.968 |

| Structure (SMILES) | Cell Viability Ratio |
| --- | --- |
| Nc1nc(NCc2ccccc2)nc(-c2cccc(CO)c2)n1 [ZINC32547799] | 1.205 |
| C[C@@H]1CN(c2cc(-c3nn(C)c4ccc(OC5(C)CC5)cc34)ncn2)C[C@H](C)O1 [MLi-2-NC] | 1.036 |
| Cc1cc(Nc2nccc(C)n2)cc(-c2cnc([C@@]3(O)CC[C@H](C(=O)O)C(C)(C)C3)s2)c1 [MRL-SYKi] | 0.8949 |
| CCNC(=O)c1cc2c(N3CCOC[C@@H]3C)ccnc2n1C | 1.086 |
| O=C(N1CCS(=O)(=O)CC1)N1C[C@H](c2ccc(OC(F)(F)F)cc2)C[C@H](c2nc(C3CC3)no2)C1 [BAY-386] | 0.9974 |
| COc1ccc2c(O[C@@H]3C[C@H]4C(=O)N[C@]5(C(=O)O)CC5/C=C\CCCCC[C@H](NC(=O)OC5CCCC5)C(=O)N4C3)cc(-c3csc(NC(=O)C(C)C)n3)nc2c1C (some centres not stated) [BI 1230] | 0.9938 |
| O=C(NCCCN1CCOC1=O)c1cnc(NCc2cc(Br)ccc2Br)nc1NC1CCCC1 | 0.9691 |
| O=C(N[C@H]1CCCCC/C=C\C2C[C@@]2(C(=O)O)NC(=O)[C@@H]2C[C@@H](Oc3ccncc3)CN2C1=O)OC1CCCC1 (some centres not stated) [BI 1675] | 1.111 |
| CN(C)C(=O)/C(C#N)=C/c1ccc(-c2nc3cnc4c(ccn4C)c3n2C2CCCCC2)o1 | 0.859 |
| CC1=C(C#N)C(c2ccc3[nH]nc(C)c3c2)C(C#N)=C(C)N1 [BAY-474] | 0.9495 |
| Cn1cc(Cl)c2c(Oc3c(F)cc(Nc4cc(Cl)nc(N)n4)cc3F)ccnc21 [BAY-4900] | 1.21 |
| CCCCNc1ncc(-c2ccc(CN3CCOCC3)cn2)c(N[C@H]2CC[C@H](O)CC2)n1 | 1.102 |
| Cc1ccc2nc(CNCCCOc3ccccc3)cc(O)c2c1 [UCSF924] | 1.046 |
| Cc1c(N2CCCC2)nc2ccc(Br)cc2c1C(=O)NC[C@H](CCC(=O)O)c1ccccc1Cl [BAY-6672] | 0.9418 |
| CCC(=N\O)/C(C)=C/c1ccc(F)c(C)c1 [A-226] | 1.032 |
| COc1cc(Nc2nccc(-c3cnn4nc(OC)ccc34)n2)cc(C(F)(F)F)c1 | 1.735 |
| COc1cc(Nc2nc(C)cc(-c3cnn4nc(OC)ccc34)n2)cc(C(F)(F)F)c1 | 0.9824 |
| FC(F)(F)c1ccc2c(c1)nc(-c1cccnc1)n2C1CC1 [MSD-CYP11B2-Negative-control] | 1.22 |
| CC(=O)NCC(=O)N1[C@@H]2CC[C@H]1c1ccc(Nc3ncc(C(F)(F)F)c(NC4CCC4)n3)cc12 [PF-03814735] | 0.4683 |
| CCCOc1ccc([C@H]2[C@H](C(=O)O)[C@@H](c3ccc4c(c3)OCO4)CN2CC(=O)Nc2c(CC)cccc2CC)cc1 [A-192621] | 1.0774 |
| Cc1c(NC(=O)c2cc(C(N)=O)nc3cc(F)ccc23)c(C(F)(F)F)nn1Cc1ccc(C(C)(C)C)cc1 [BAY-588] | 1.099 |
| CNC(=N)NCCC[C@H](NC(=O)[C@H](CC(C)C)NC(=O)NNC(=O)[C@H](Cc1ccccc1)NC(=O)[C@H](CO)NC(=O)[C@H](CC(N)=O)NC(=O)[C@@H](Cc1cccnc1)NC(=O)[C@H](N)Cc1ccc(O)cc1)C(=O)NCC(N)=O [KISS1-543] (H-[dY][d3Pal]NSF[azaGly]L[Arg(Me)]G-NH2) | 1.03 |
| COc1cc(-c2cn([C@H]3CCc4ccccc4N(CC(F)(F)F)C3=O)nn2)ccc1-n1ccc(C)n1 | 0.9931 |
| COc1ccc2cc(OCC3(C(=O)O)CN(C(=O)c4ccc(F)cc4)C3)ccc2c1 [PF-04418948] | 1.076 |
